Patent publication US20030176475A1, “Therapeutically useful new salts of cck inhibitors, process for the preparation thereof and pharmaceutical preparations containing them” (priority 2000, published 2003)

What was measured:
[1] = target: T1, cholecystokinin A (CCK-A) (Rattus norvegicus, UniProt P30551); conditions: comparison in words; cited from earlier work
T1 construct: from tissue; host or cells: living rat (in vivo, oral dosing; gastric emptying)
T1 sequence (P30551 1-444): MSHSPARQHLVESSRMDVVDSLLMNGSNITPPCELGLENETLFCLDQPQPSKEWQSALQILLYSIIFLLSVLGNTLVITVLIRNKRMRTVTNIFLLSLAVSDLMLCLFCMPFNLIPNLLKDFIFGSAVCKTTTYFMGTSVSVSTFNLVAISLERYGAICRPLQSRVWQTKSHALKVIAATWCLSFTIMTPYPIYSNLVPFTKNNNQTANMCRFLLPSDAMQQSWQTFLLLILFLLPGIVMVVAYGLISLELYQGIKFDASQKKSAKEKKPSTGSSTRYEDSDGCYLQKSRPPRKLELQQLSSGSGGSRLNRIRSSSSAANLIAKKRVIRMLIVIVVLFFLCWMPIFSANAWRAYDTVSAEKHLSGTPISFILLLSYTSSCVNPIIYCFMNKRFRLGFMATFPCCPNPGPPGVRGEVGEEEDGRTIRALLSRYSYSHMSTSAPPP

[2] = Hygroscopicity and chemical stability of the salts; format: physicochemical
Description: The mono- and di-sodium salts, as well as the mono- and di-potassium salts and their hydrates are highly hygroscopic and chemically not stable compounds namely the compound of the formula (II) decomposes at the amide bond giving rise to decomposition products of formulae (IV) (FIG. 6) and (V) (FIG. 7).

Compound	ED50 of prior salts compared with the 34 μg/kg p.o. of the compound of the invention [1]	melting point [°C]	hygroscopicity [2]	chemical stability ([2]; decomposition at the amide bond to products of formulae (IV) and (V))
Nc1cc(Cl)nc(C(=O)[O-])c1Cl.[K+] [potassium salt]	in the same order			
CCNCC.COc1cc(-c2nc(NC(=O)c3cc4cc(C)cc(C)c4n3CC(=O)O)sc2CCC2CCCCC2)c(OC)cc1Cl		209.4 to 210.7		
COc1cc(-c2nc(NC(=O)c3cc4cc(C)cc(C)c4n3CC(=O)O)sc2CCC2CCCCC2)c(OC)cc1Cl.NCCO [ethanolamine salt, 2-[[[4-(4-chloro-2,5-dimethoxyphenyl)-5-(2-cyclohexylethyl)-2-thiazolyl]amino]carbonyl]-5,7-dimethyl-1H-indol-1-acetic Acid Ethanolamine Salt]		208 to 210	non-hygroscopic	chemically stable
COc1cc(-c2nc(NC(=O)c3cc4cc(C)cc(C)c4n3CC(=O)O)sc2CCC2CCCCC2)c(OC)cc1Cl.NCCO.O (hydrate or solvate)		166 to 167		
